{"source": "paper PMC5829251", "about": "“NAD^+ analog reveals PARP-1 substrate-blocking mechanism and allosteric communication from catalytic center to DNA-binding domains” (Nature Communications, 2018)", "key": {"[1]": {"target": "T1, PARP-1 CAT WT (Homo sapiens, UniProt P09874)", "T1 construct": "The PARP-1 CAT WT (residues 661–1014) was cloned in pET28 vector; made in house; host or cells: E. coli", "T1 sequence (P09874 661-1014)": "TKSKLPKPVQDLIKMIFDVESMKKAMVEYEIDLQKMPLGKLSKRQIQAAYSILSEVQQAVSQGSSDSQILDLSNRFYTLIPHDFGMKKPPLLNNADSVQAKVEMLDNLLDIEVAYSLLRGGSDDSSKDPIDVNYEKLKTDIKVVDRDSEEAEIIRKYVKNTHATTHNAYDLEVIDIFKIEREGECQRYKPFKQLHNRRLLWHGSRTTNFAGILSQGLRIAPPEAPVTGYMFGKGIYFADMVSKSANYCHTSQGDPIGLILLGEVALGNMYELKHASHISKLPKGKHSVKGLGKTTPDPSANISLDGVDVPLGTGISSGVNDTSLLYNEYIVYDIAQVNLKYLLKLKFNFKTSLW", "assay": "Isothermal titration calorimetry (ITC), PARP-1 CAT WT", "assay_type": "binding", "experimental": "(§1) ITC experiments were performed using a MicroCal iTC200 calorimeter (GE Healthcare). BAD or benzamide at 525 μM was titrated into PARP-1 protein (50 μM for CAT WT and CAT ΔHD, 40 μM for full-length PARP-1 WT and mutants) or PARP-1 protein with DNA (20–40 μM) at 25°C. Prior to the experiment, proteins and DNA were dialyzed in 25 mM Hepes pH 8.0, 150 mM NaCl, 1 mM EDTA, and 0.1 mM TCEP. BAD and benzamide were diluted in the dialysis buffer. PARP-1/DNA complexes were assembled and incubated at RT for 30 min prior to performing the experiment. Experiments were typically designed as follows: a first injection of 0.2 μL was followed by 16 injections of 2.5 μL with a spacing of 100 s between injections. Excess heat upon each injection was integrated using an automatically adjusted base line and derived values corrected by heat of dilution. Data analysis and curve fitting were conducted using Origin 7 software. The ITC experiment for each sample was performed either two (PARP-1 WT with benzamide, PARP-1 E763/D766/D770A with benzamide, PARP-1 D766/D770A with BAD) or three times (the remaining eight samples). Table 2 lists the average KD value and stoichiometry (n) for the replicates, and the reported errors are the calculated standard deviations (representing the range of values for experiments repeated two times). We anticipate that the sub-stoichiometric n values for CAT constructs results from either the active fraction being < 100%, or the protein concentration determination being not entirely accurate. The analysis of full-length PARP-1 yielded n values around the expected value of 1."}, "[2]": {"target": "T2, full-length PARP-1 E763/D766/D770A (Homo sapiens, UniProt P09874, D766A/D770A/E763A)", "T2 construct": "Full-length PARP-1 WT (residues 1–1014) was cloned in pET28 vector and site-directed mutagenesis was performed; made in house; host or cells: E. coli", "T2 sequence (P09874 whole entry E763A/D766A/D770A, the tested form may be a part)": "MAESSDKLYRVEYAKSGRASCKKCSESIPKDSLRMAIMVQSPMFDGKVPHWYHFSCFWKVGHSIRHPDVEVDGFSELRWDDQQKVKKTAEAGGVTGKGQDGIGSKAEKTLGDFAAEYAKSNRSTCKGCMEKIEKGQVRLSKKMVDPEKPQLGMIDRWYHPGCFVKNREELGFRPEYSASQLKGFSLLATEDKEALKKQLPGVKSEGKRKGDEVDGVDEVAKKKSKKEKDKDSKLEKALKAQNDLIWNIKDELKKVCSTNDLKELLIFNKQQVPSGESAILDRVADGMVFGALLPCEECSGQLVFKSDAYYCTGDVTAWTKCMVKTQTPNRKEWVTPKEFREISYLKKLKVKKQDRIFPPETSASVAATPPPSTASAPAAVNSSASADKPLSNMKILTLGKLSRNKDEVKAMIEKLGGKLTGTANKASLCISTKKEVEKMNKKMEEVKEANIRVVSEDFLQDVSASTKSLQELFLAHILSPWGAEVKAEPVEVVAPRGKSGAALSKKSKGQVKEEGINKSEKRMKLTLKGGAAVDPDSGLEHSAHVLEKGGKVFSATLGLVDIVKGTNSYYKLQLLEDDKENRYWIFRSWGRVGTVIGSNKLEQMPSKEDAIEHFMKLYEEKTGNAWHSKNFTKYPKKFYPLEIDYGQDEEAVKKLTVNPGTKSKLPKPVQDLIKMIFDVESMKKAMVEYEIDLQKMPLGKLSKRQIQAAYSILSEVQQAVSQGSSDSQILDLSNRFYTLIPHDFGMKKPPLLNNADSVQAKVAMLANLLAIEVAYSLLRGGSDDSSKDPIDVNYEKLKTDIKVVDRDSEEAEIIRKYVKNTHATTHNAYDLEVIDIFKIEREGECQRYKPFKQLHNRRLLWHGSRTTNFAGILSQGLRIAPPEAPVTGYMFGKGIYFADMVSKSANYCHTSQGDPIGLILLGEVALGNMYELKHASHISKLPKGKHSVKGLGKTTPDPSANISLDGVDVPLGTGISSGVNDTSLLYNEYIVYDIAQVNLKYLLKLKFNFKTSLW", "assay": "ITC, full-length PARP-1 E763/D766/D770A", "assay_type": "binding", "conditions": "for n (stoichiometry): FL E763/D766/D770A; for KD / Kd: FL E763/D766/D770A 40 μM, without DNA, compound 525 μM titrated, 25°C", "experimental": "as §1"}, "[3]": {"target": "T3, PARP-1 (Homo sapiens, UniProt P09874)", "T3 construct": "Full-length PARP-1 WT (residues 1–1014) was cloned in pET28 vector; made in house; host or cells: E. coli", "assay": "HXMS analysis of PARP-1 dynamics", "conditions": "for HX of an ART active site peptide (a.a. 901–917): 10^4 s time point, PARP-1 alone or in complex with DNA", "experimental": "Deuterium on-exchange was carried out at RT by mixing 5 µL of each sample (8 µM concentration) with 15 µL of deuterium on-exchange buffer (10 mM HEPES, pD 7.0, 150 mM NaCl, in D2O) yielding a final D2O concentration of 75%. pD values for deuterium-based buffers were calculated as pD = pH + 0.41[38]. Upon mixing with on-exchange buffer, the amide protons will be replaced over time with deuterons yielding an increased peptide mass. To quench the deuterium exchange reaction, the sample (20 µl) was mixed with 30 µl of ice-cold quench buffer (1.66 M guanidine hydrochloride, 10% glycerol, and 0.8% formic acid, for a final pH of 2.4–2.5) and rapidly frozen in liquid nitrogen. For the MS analysis, each sample (50 µL) was melted on ice and loaded onto an in-house packed pepsin column for digestion. Pepsin (Sigma) was coupled to POROS 20 AL support (Applied Biosystems), and the immobilized pepsin was packed into a column housing (2 mm × 2 cm, Upchurch). Pepsin-digested peptides were captured on TARGA C8 5 µm Piccolo HPLC column (1.0 × 5.0 mm, Higgins Analytical) and eluted through an analytical C18 HPLC column (0.3 × 75 mm, Agilent) by a shaped 12–100% buffer B gradient at 6 µL per min (Buffer A: 0.1% formic acid; Buffer B: 0.1% formic acid, 99.9% acetonitrile). The effluent was electrosprayed into the mass spectrometer. Non-deuterated (ND) PARP-1 samples were prepared in 10 mM HEPES, pH 7.0, 150 mM NaCl buffer, and mixed with the quench buffer to mimic the samples from on-exchange reaction. Peptides of ND samples were analyzed in tandem MS (LTQ Orbitrap XL, Thermo Fisher Scientific). We analyzed MS/MS data collected from these samples to identify potential PARP-1 peptides using SEQUEST (Bioworks v3.3.1, Thermo Fisher Scientific) with a peptide tolerance of 8 ppm and a fragment tolerance of 0.1 AMU. Deuterated samples were then analyzed on an Exactive Plus EMR-Orbritrap (Thermo Fisher Scientific). A MATLAB based program, ExMS[39] was used for HXMS data processing. […] The level of deuteration of individual peptides was measured by comparing them to the ND sample. […] For each peptide, we compare the extent of deuteration as measured in the FD sample to the theoretical maximal deuteration (i.e., if no back-exchange occurs); the median extent of back-exchange in our datasets is only 15%.\nPeptide plotting and calculations were performed in MATLAB. […] For comparing two different HXMS datasets, we plot the percent difference of each peptide, which is calculated by subtracting the percent deuteration of one sample from that of another, and plotted according to the color legend in stepwise increments (as in Fig. 5b). […]"}, "[4]": {"conditions": "CAT WT 50 μM, compound 525 μM titrated, 25°C"}}, "note": "Entries after “also recorded” stand apart in the source; their conditions may differ.", "data": [{"smiles": "NC(=O)c1cccc(C2OC(COP(=O)(O)OP(=O)(O)OCC3OC(n4cnc5c(N)ncnc54)C(O)C3O)C(O)C2O)c1", "note": "(centres unmarked) [BAD, benzamide adenine dinucleotide]", "values": [{"measurement": "KD", "setting": "[1]; [4]", "value": "no measureable heat exchange; also recorded: No binding"}, {"measurement": "calculated KD for BAD lower than observed for all other proteins", "setting": "[2]; E763/D766/D770A versus all other proteins", "value": "about 10 fold"}, {"measurement": "n (stoichiometry)", "setting": "[2]", "value": "1.00 + /− 0.13"}, {"measurement": "KD", "setting": "[2]", "value": "showed evidence of binding"}, {"measurement": "Kd", "setting": "[2]", "value": 380, "unit": "nM"}, {"measurement": "HX in peptides localized to HD helices αB and αF", "setting": "[3]; 10^2 s time point, PARP-1 bound to a DNA strand break", "value": "increased HX"}, {"measurement": "HX of an ART active site peptide (a.a. 901–917)", "setting": "[3]", "value": "only observed with PARP-1 in complex with DNA"}, {"measurement": "HX in regions outside of the CAT (domain-domain and domain-DNA interfaces)", "setting": "[3]; PARP-1 in complex with DNA, not in the absence of DNA", "value": "decrease in HX"}]}, {"smiles": "NC(=O)c1ccccc1", "note": "[benzamide]", "values": [{"measurement": "n (stoichiometry)", "setting": "[1]; CAT WT", "value": "0.49 + /− 0.02"}, {"measurement": "Kd", "setting": "[1]; [4]", "value": 3.79, "unit": "µM"}, {"measurement": "n (stoichiometry)", "setting": "[2]", "value": "0.89 + /− 0.07"}, {"measurement": "KD", "setting": "[2]", "value": "also bound to benzamide similarly"}, {"measurement": "Kd", "setting": "[2]", "value": 2990, "unit": "nM"}, {"measurement": "HX of an ART active site peptide (a.a. 901–917)", "setting": "[3]", "value": "decreased HX in the same ART peptide for both PARP-1 alone and PARP-1 in complex with DNA"}]}]}
